{
  "source": "patent US11819514B2",
  "about": "“Use of oligosaccharide riclinoctaose in preparation of drug for treating and/or preventing ischemia-reperfusion injury (IRI)” (Nanjing Southern Element Biotechnology Co., Ltd., priority 2021, dated 2023)",
  "key": {"male C57/BL6J mice [1]": {"test_system": "male C57/BL6J mice", "experiment": "HIRI mouse model: serum enzyme activity assay (ALT, AST, LDH)", "assay_type": "in vivo", "settings": "i.p. 20 mg/mL (LRO) and 40 mg/mL (HRO) 4 h to 6 h before surgery, 30 min ischemia, 6 h reperfusion, vs model group", "protocol": "(§1) The experimental animals were male C57/BL6J mice aged 6 to 8 weeks and weighed 22 g to 26 g. The mice were housed under standard experimental conditions with a 12-hour light-12-hour dark cycle with free access to water and food. The mice were anesthetized with isoflurane, the abdomen was operated on, and the blood supply to middle and left lobes of the liver was blocked with non-invasive hemostatic clips, resulting in 70% hepatic ischemia; after 30 min of ischemia, the clips were removed, and samples were collected to measure biochemical parameters after reperfusion for 6 h.\n(§2) The mice were administered by intraperitoneal injection and randomly divided into four groups; a first group was a sham-operation group (sham), the animals in the sham-operation group received the same laparotomy without vascular clip occlusion; a second group was a model group (IR); a third group was a low-dosage group (LRO), with 20 mg/mL of the oligosaccharide riclinoctaose injected intraperitoneally about 4 h to 6 h before surgery; and a fourth group was a high-dosage group (HRO), with 40 mg/mL of the oligosaccharide riclinoctaose injected intraperitoneally about 4 h to 6 h before surgery. The oligosaccharide riclinoctaose drug was dissolved in a 0.9% normal saline.\nWhole blood was collected, allowed to coagulate naturally at a room temperature, centrifuged at 2,000 r/min for 10 min, and a supernatant was collected for the determination of ALT, AST and LDH enzyme activities. The activities of AST, ALT and LDH were determined by an enzyme colorimetric quantitative analysis method, according to operation steps in kit instructions, and finally concentrations were determined by colorimetry at a wavelength of 505 nm or 440 nm.\n(§3) Comparisons between multiple groups were statistically analyzed using a One-way ANOVA statistical method. P<0.05 was considered to have a significant effect."}, "male C57/BL6J mice [2]": {"test_system": "male C57/BL6J mice", "experiment": "HIRI mouse model: histological analysis of liver (H&E)", "assay_type": "in vivo", "protocol": "as §1\nas §2, with “saline. […]” for “saline.”"}, "male C57/BL6J mice [3]": {"test_system": "male C57/BL6J mice", "experiment": "RIRI mouse model: plasma biochemical indicators (BUN, Creatinine, LDH)", "assay_type": "in vivo", "settings": "i.p. 20 or 40 mg/mL 4 h to 6 h before surgery, 30 min ischemia, 24 h reperfusion", "source_text": "The experimental animals were male C57/BL6J mice aged 6 to 8 weeks and weighed 22 g to 26 g; the mice were anesthetized with isoflurane, and the abdomen was operated on, and after the righting reflex disappeared, the mice were placed in a prone position on a mouse dissection table and fixed; under sterile conditions, the abdominal cavity was opened along a 1.5 cm longitudinal incision on both dorsal sides, the muscles were bluntly separated, and the renal pedicles on both sides were exposed; the blood flow was blocked with a non-invasive vascular clip, and the kidneys turned from red to dark purple, indicating successful ischemia. After 30 min of ischemia, the arterial clips were released, and the abdominal cavity was closed after the kidneys were restored to perfusion; after 24 h, samples were collected to measure biochemical indicators, and an RIRI model was established. […]\nWhole blood was collected, allowed to coagulate naturally at a room temperature, centrifuged at 2,000 r/min for 10 min, and a supernatant was collected for the determination of BUN, Creatinine, and LDH. The plasma BUN, Creatinine and LDH concentrations of mice in each group were analyzed according to instructions of the plasma BUN, Creatinine, and LDH detection kits, followed by operation steps in kit instructions, and finally concentrations were determined by colorimetry at a wavelength of 510 nm or 440 nm.\nComparisons between multiple groups were statistically analyzed using a One-way ANOVA statistical method. […]"}, "male C57/BL6J mice [4]": {"test_system": "male C57/BL6J mice", "experiment": "RIRI mouse model: histological analysis of kidney (H&E, PAS)", "assay_type": "in vivo", "settings": "vs model group", "source_text": "The experimental animals were male C57/BL6J mice aged 6 to 8 weeks and weighed 22 g to 26 g; the mice were anesthetized with isoflurane, and the abdomen was operated on, and after the righting reflex disappeared, the mice were placed in a prone position on a mouse dissection table and fixed; under sterile conditions, the abdominal cavity was opened along a 1.5 cm longitudinal incision on both dorsal sides, the muscles were bluntly separated, and the renal pedicles on both sides were exposed; the blood flow was blocked with a non-invasive vascular clip, and the kidneys turned from red to dark purple, indicating successful ischemia. After 30 min of ischemia, the arterial clips were released, and the abdominal cavity was closed after the kidneys were restored to perfusion; after 24 h, samples were collected to measure biochemical indicators, and an RIRI model was established.\nas §2\nHistomorphological changes in mouse kidneys were analyzed by H&E staining and PAS staining. The resected kidney tissue was immediately fixated with buffered 4% paraformaldehyde (in a PBS buffer) for histological analysis, embedded in paraffin, and sections were stained with by H&E or PAS. The necrosis and structural damages of nephrocytes were observed by a microscope."}, "male C57/BL6J mice [5]": {"test_system": "male C57/BL6J mice", "experiment": "CIRI (MCAO) mouse model: neurofunctional scoring (mNSS, Longa)", "assay_type": "in vivo", "source_text": "The experimental animals were male C57/BL6J mice aged 6 to 8 weeks and weighed 22 g to 26 g. Mice were anesthetized with isoflurane and placed on a supine heating pad. The skin was disinfected with iodine and 75% ethanol. A midline neck incision is made to expose the carotid artery […]. An external carotid artery (ECA) was isolated and occluded with two knots. An internal carotid artery (ICA) was isolated, and the MCA and ICA were clamped with microvascular clips. A small hole was cut in the ECA between the knot and a bifurcation point. A silicone rubber-coated, 30-mm-long, and 0.11-mm-diameter middle cerebral artery occlusion (MCAO) tether was introduced into the ICA. The artery was opened while sutures were inserted to block the blood vessel. A third knot on the ICA was closed and the suture was secured in a proper place. The mouse abdominal cavity was sutured, and the mice were placed in a heated cage for 30 min, and the wound was closed using small suture clips. The third knot was loosened, the filament was removed, and reperfusion was conducted for 24 h. The skin was closed and the mice were returned to individual cages.\nas §2, with “neck incision” for “laparotomy”, “suture blockage;” for “clip occlusion;”\nNeurofunctional scoring: the neurobehavioral functions were assessed using mNSS and Longa scores. The mNSS assessed neurological deficits through motor, reflex, sensory, and balance tests. Scores ranged from 0 (indicating no neurological deficit) to 18 (indicating the most severely-injured animal). The Longa score was determined as follows: 0 points, no neurological deficit; 1 point, the animals were unable to fully extend the contralateral forelimbs; 2 points, there was a tail scratching phenomenon when walking (circling to the opposite side); 3 points, a standing posture was unstable, falling to the opposite side; and 4 points, there was no spontaneous walking and loss of consciousness. A score of 0 to 2 was classified as mild nerve injury, while a score of 3 to 4 was classified as severe nerve injury.\nas §3"}, "[6]": {"settings": "cited from earlier work"}, "intestinal microflora": {"test_system": "intestinal microflora", "settings": "cited from earlier work"}, "[7]": {"settings": "i.p. injection before surgery, 30 min occlusion, 24 h reperfusion, vs model group"}},
  "note": "“Also recorded” adds a separate entry of the source.",
  "data": [
    {"substance": "D-Glcp(4,6-pyr)-β-(1→3)-D-Glcp-β-(1→3)-D-Glcp-β-(1→6)-D-Glcp-β-(1→6)-D-Glcp-β-(1→4)-D-Glcp-β-(1→4)-D-Glcp-β-(1→3)-D-Galp [oligosaccharide riclinoctaose]", "values": [
      {"measurement": "ALT activity in serum", "setting": "male C57/BL6J mice [1]", "result": "decrease the AST, ALT and LDH values in a dosage-dependent manner; also recorded: significant reduction of ALT, AST, LDH activities in serum"},
      {"measurement": "AST activity in serum", "setting": "male C57/BL6J mice [1]", "result": "decrease the AST, ALT and LDH values in a dosage-dependent manner; also recorded: significant reduction of ALT, AST, LDH activities in serum"},
      {"measurement": "LDH activity in serum", "setting": "male C57/BL6J mice [1]", "result": "decrease the AST, ALT and LDH values in a dosage-dependent manner; also recorded: significant reduction of ALT, AST, LDH activities in serum"},
      {"measurement": "necrotic area of liver parenchyma cells (H&E staining)", "setting": "male C57/BL6J mice [2]; i.p. 20 and 40 mg/mL before surgery, 6 h reperfusion", "result": "reduction of a necrotic area of liver parenchyma cells"},
      {"measurement": "liver tissue morphology / degree of damages (H&E staining)", "setting": "male C57/BL6J mice [2]; treatment groups compared with sham-operation and model groups", "result": "the treatment groups and the sham-operation group have the closest tissue morphology, indicating a lesser degree of damages"},
      {"measurement": "plasma BUN", "setting": "male C57/BL6J mice [3]", "result": "significantly decreased"},
      {"measurement": "plasma Creatinine", "setting": "male C57/BL6J mice [3]", "result": "significantly decreased"},
      {"measurement": "plasma LDH", "setting": "male C57/BL6J mice [3]", "result": "significantly decreased"},
      {"measurement": "area of cell necrosis in kidney (H&E staining)", "setting": "male C57/BL6J mice [4]", "result": "the area of cell necrosis is reduced"},
      {"measurement": "brush border shedding of renal tubule cells and degree of cell necrosis (PAS staining)", "setting": "male C57/BL6J mice [4]", "result": "significantly reduced"},
      {"measurement": "infiltration of inflammatory factors in kidney (H&E staining)", "setting": "male C57/BL6J mice [4]", "result": "the infiltration of inflammatory factors is also reduced"},
      {"measurement": "neurobehaviour, low-dosage group (LRO)", "setting": "male C57/BL6J mice [5]; 20 mg/mL i.p. 4 h to 6 h before surgery", "result": "cannot fully extend the contralateral forelimbs, the mice are not as severe as those in the model group"},
      {"measurement": "neurobehaviour, high-dosage group (HRO)", "setting": "male C57/BL6J mice [5]; 40 mg/mL i.p. 4 h to 6 h before surgery", "result": "behave similarly to those in the sham-operation group (sham) without neurological deficits"},
      {"measurement": "neurological deficit by Longa score", "setting": "male C57/BL6J mice [5]; [7]", "result": "the neurological deficit of mice can be significantly reduced"},
      {"measurement": "neurological deficit by mNSS", "setting": "male C57/BL6J mice [5]; [7]", "result": "the neurological deficit of mice can be significantly reduced"},
      {"measurement": "water solubility", "setting": "[6]", "result": "desirable water solubility"},
      {"measurement": "effect on intestinal microflora as a prebiotic", "setting": "intestinal microflora", "result": "significantly improve the intestinal microflora"}
    ]}
  ]
}
